Data: PMC11087509, “Multimodal binding and inhibition of bacterial ribosomes by the antimicrobial peptides Api137 and Api88” (Nature Communications, 2024)
Where a SMILES comes first, the peptide text is derived from it. The star is where a group is joined. Orn(α-tetramethylguanidino) = CN(C)C(=N[C@@H](CCCN)C(=O)*)N(C)C

Key:
purified 70S ribosomes = experiment: In vitro transcription-translation (ITT) of sfGFP; type: biochemical, E. coli
Description: sfGFP was expressed using the NEB PureExpress Delta RF123 Kit (New England Biolabs). The sfGFP DNA template encoding for an UAG stop codon was amplified from the pY71sfGFP plasmid by PCR using sfGFP primers (sfGFP fwd: […] and sfGFP rev: […]). The release factor RF1 included in the kit was 50-fold diluted (v/v) in freshly prepared 1x Pure System Buffer (PSB, 9 mmol/L magnesium acetate, 5 mmol/L K3PO4 (pH 7.3), 95 mmol/L potassium glutamate, 5 mmol/L NH4Cl, 0.5 mmol/L CaCl2, 1 mmol/L spermidine, 8 mmol/L putrescine, 1 mmol/L DTT). sfGFP was expressed in a freshly prepared mixture of kit solution A (2 µL), kit solution B (1.5 µL), 50-fold diluted RF1 (0.5 µL), sfGFP template (0.1325 pmol, 35 ng) or water as control (0.25 µL), PSB (0.25 µL), and a PrAMP (50, 5, 0.05 or 0 µmol/L) dissolved in water (0.5 µL). The reaction mixture was transferred to a black 384-well plate (Greiner Bio-One GmbH, Frickenhausen, Germany), covered with a lid, and incubated in a microplate reader (Gemini EM, Molecular Devices) at 37 °C for two hours. Fluorescence was recorded every 10 min (λexc = 485 nm, λem = 535 nm).

recombinant TF = settings: fluorescence polarization; cited from earlier work
Description: Binding sites two and three are close to uL23 and uL29, which is also supported by Api88(Y7B) cross-links. These ribosomal proteins are located adjacent to the PET exit and are binding hubs for the molecular chaperone trigger factor (TF)[34] and the signal recognition particle (SRP), a universally conserved and essential cellular machinery that directs proteins destined for membrane integration to the plasma membrane[35],[36]. This co-translational targeting is initiated by a hydrophobic signal sequence in the nascent protein chain recognized by SRP as it exits the PET. It is appealing to hypo ...

DnaK = settings: read-out: Kd (DnaK); peer review response; cited from earlier work
Description: We now introduce trigger factor in line 446 as “…molecular chaperone…” In addition, we hypothesize that Api88 binds to the ribosome within the contact area of TF, which interacts with uL23 and uL29, two proteins we report here as cross-linked to Api88.

uL22 and uL4 = settings: cited from earlier work
[1] = tested on: ribosome (arrest at UAG stop codon of model yrbA ORF); experiment: In vitro toeprinting analysis (yrbA-fs15 template, TAG stop codon); type: biochemical; settings: 50 µmol/L; gel, one of two replicates
Method: Toeprinting experiments using the yrbA-fs15 DNA template with a TAG stop codon were performed in the NEB classic PURExpress system (New England Biolabs)[21] as described above. The template was prepared by PCR[21] by combining the overlapping primers T7, T7-IR-AUG, IR-yrbA-fs15-RF1 (for TAG), post-NV1, and NV1, rendering the sequence:
[…](TAG)[…] (ORF sequence is underlined). The peptides Api137 and Api88 were added from stock solutions in water to a final concentration of 50 µM.

30S subunit = experiment: Fluorescence polarization binding, 30S subunit; set-up: species or system E. coli; settings: ratio 30S / 50S; cf-labeled
Method: Several hundred grams of log-phase cells were commercially produced and purchased. Cells were washed in buffer A (20 mmol/L HEPES (pH 7.6), 6 mmol/L MgAc2, 30 mmol/L AcOK, 4 mmol/L ß-mercaptoethanol) and lysed in an M-110L microfluidizer (Microfluidics) at 17,000 psi and 4 °C. Cell debris was removed by low-speed centrifugation (15,000× g, 10 min, 4 °C) to obtain S30 lysate. Crude ribosomes, mostly containing 70S ribosomes, were pelleted by ultracentrifugation (40,000× g, 17 h, 4 °C) and resuspended in buffer A. The 70S ribosomes were separated from 30S and 50S subunits by zonal ultracentrifugation (Beckman Ti-15; 6–40% sucrose gradient in buffer A, 44,000× g, 16 h, 4 °C). The 70S-containing fractions were collected, and the ribosomes were sedimented by ultracentrifugation (40,000× g, 17 h, 4 °C). […]
Dissociation constants (Kd) were determined using purified 70S ribosome, 50S or 30S subunit and cf-labeled peptides in ribosome preparation buffer. […] Fluorescence polarization was measured on a […]^TM microplate reader (Beckman Coulter, Krefeld, Germany) in the top reading position (λexc = 485 nm, λem = 535 nm). […]

Gram-negative bacteria = settings: cited from earlier work
Description: Here we have focused on two structurally modified versions of apidaecin 1b ([…]), which was originally isolated from the western honeybee (Apis mellifera).

50S subunit = target: T1, 50S subunit (Escherichia coli, UniProt P0A7M6+P0ADZ0+P60723+P61175); experiment: Fluorescence polarization binding, 50S subunit; set-up: species or system E. coli
T1 construct: Ribosomes were isolated from the E. coli strain MRE600; made in house; native subunits isolated in house
Method: Several hundred grams of log-phase cells were commercially produced and purchased. Cells were washed in buffer A (20 mmol/L HEPES (pH 7.6), 6 mmol/L MgAc2, 30 mmol/L AcOK, 4 mmol/L ß-mercaptoethanol) and lysed in an M-110L microfluidizer (Microfluidics) at 17,000 psi and 4 °C. Cell debris was removed by low-speed centrifugation (15,000× g, 10 min, 4 °C) to obtain S30 lysate. Crude ribosomes, mostly containing 70S ribosomes, were pelleted by ultracentrifugation (40,000× g, 17 h, 4 °C) and resuspended in buffer A. The 70S ribosomes were separated from 30S and 50S subunits by zonal ultracentrifugation (Beckman Ti-15; 6–40% sucrose gradient in buffer A, 44,000× g, 16 h, 4 °C). The 70S-containing fractions were collected, and the ribosomes were sedimented by ultracentrifugation (40,000× g, 17 h, 4 °C). Since these 70S ribosomes still contained tRNAs and mRNA, they were resuspended in buffer B (20 mmol/L HEPES (pH 7.6), 1 mmol/L MgAc2, 0.2 mol/L NH4Ac, 4 mmol/L ß-mercaptoethanol), which allows for dissociation into 30S and 50S subunits, and subjected to a second zonal centrifugation (Beckman Ti-15, 44,000× g, 16 h, 4 °C), but this time in a 6–40% sucrose gradient prepared in buffer B. Fractions containing 30S and 50S subunits were collected, sedimented by ultracentrifugation (40,000× g, 17 h, 4 °C), resuspended in buffer A, aliquoted, shock-frozen in liquid nitrogen, and stored at −80 °C.
Dissociation constants (Kd) were determined using purified 70S ribosome, 50S or 30S subunit and cf-labeled peptides in ribosome preparation buffer. Briefly, black 384-well plates (flat bottom, 781209, Greiner Bio-One GmbH) were blocked with casein (0.5%, w/v) in PBS containing 0.05% (v/v) Tween 20 at 4 °C overnight and washed three times with phosphate buffer. A 2-fold dilution series (22 steps) of pure 70S ribosome, 50S or 30S subunit (10 μL per well) in ribosome preparation buffer was prepared in a black 384-well plate. The cf-labeled peptide was dissolved in ribosome preparation buffer (10 μL, 40 nmol/L), added to each well, centrifuged (500 x g, 2 min), and incubated at 28 ± 1 °C for 90 min. Fluorescence polarization was measured on a […]^TM microplate reader (Beckman Coulter, Krefeld, Germany) in the top reading position (λexc = 485 nm, λem = 535 nm). Data were fitted to a nonlinear dose-response logistic transition equation [y = y0 + a/(1 + (x/x0)b)] using the Levenberg-Marquardt algorithm, with Kd represented by the x0 coefficients (GraphPad Prism for Windows v. 10.1.2, San Diego, CA, USA).

CC[C@H](C)[C@H](NC(=O)[C@H](Cc1ccc(O)cc1)NC(=O)[C@@H](NC(=O)[C@@H]1CCCN1C(=O)[C@H](CCCNC(=N)N)NC(=O)[C@H](CC(N)=O)NC(=O)[C@H](CC(N)=O)NC(=O)[C@H](CCCN)N=C(N(C)C)N(C)C)C(C)C)C(=O)N1CCC[C@H]1C(=O)N[C@@H](CCCNC(=N)N)C(=O)N1CCC[C@H]1C(=O)N[C@@H](CCCNC(=N)N)C(=O)N1CCC[C@H]1C(=O)N1CCC[C@H]1C(=O)N[C@@H](Cc1c[nH]cn1)C(=O)N1CCC[C@H]1C(=O)N[C@@H](CCCNC(=N)N)C(=O)N[C@@H](CC(C)C)C(=O)O [Api137] ({Orn(α-tetramethylguanidino)}-NNRPVYIPRPRPPHPRL-OH)
production of sfGFP reduced down to (purified 70S ribosomes; absence of RF1, 50 µmol/L): ~ 60% | share of inhibitory effect based on a RF1-independent mechanism (purified 70S ribosomes; in vitro protein translation, with vs without RF1): half of the inhibitory effect | Kd (recombinant TF): > 100 µM | Kd (DnaK): ~5 µM | ribosomal proteins interacting (genetic screen) (uL22 and uL4): uL22 and uL4 | toeprinting band at the UAG stop codon [1]: intense toeprinting band | binding to 30S subunit weaker compared to 50S subunit (30S subunit): ~10 fold | antimicrobial activity (Api137 and Api88 compared) (Gram-negative bacteria; Api137 and Api88): comparable level of antimicrobial activity | antibacterial activity (Gram-negative bacteria; against Gram-negative bacteria): enhanced antibacterial activity | Kd (50S subunit; apparent Kd, cf-labeled PrAMP (10 μL, 40 nmol/L), ribosome preparation buffer pH 7.6, 28 °C, 90 min, mean of triplicates): 2.18 ± 0.11 µM | Kd for 50S subunit lower than for 70S ribosome (50S subunit; ratio 70S / 50S, cf-labeled): two-
